Entries after “also recorded” stand apart in the source; their conditions may differ.
What was measured:
MB49-I tumors = experiment: Ectopic UBC model, MB49-I tumors implanted in the flank of male mice; type: in vivo
Procedure: (§1) Ectopic UBC model. Male C57BL/6J mice (6-8 weeks old), each weighing 15-18 g, were used for the experiments (supplied by Charles River). The mice were housed with free access to food and water on a 12:12 h light:dark cycle with the room temperature maintained at 21° C. MB49 cells, MB49-I cells, and iNOS-deficient MB49-I cells ([…] in 100 μL PBS) were injected subcutaneously (s.c.) into the right flank of the mice. Growth rates of the s.c. tumors were monitored. The size of tumors was determined every 3 days for 24-28 days using a digital caliper and by measuring luciferin luminescence at days 15 and 25 using the IVIS imaging system. A blinded observer measured tumor length and width. The volume of the tumor was calculated from the formula: Length×width2×0.52, where length and width were tumor diameters measured with calipers in mutually perpendicular directions. At a tumor size of approximately 10 mm^3 the mice were divided into different groups. A control group received PBS as treatment. As indicated, other groups were treated at different doses (90, 150 or 300 μM) with an intraperitoneal (i.p.) injection of compounds 4 or 8 every 3-4 days for 18-20 days.^24,27

MB49 tumors = experiment: Ectopic UBC model, non-muscle invasive MB49 tumors in male mice; type: in vivo; settings: i.p. 90 and 150 μM
Procedure: as §1

Structure (SMILES): CC(C)(C)OC(=O)NNC(=O)c1ccc(N2C(=O)C=CC2=O)cc1 [Compound 4, N′-[4-(2,5-dioxo-2,5-dihydro-pyrrol-1-yl)-benzoyl]-hydrazine carboxylic acid tert-butyl ester]
- histological examination of lung specimens (MB49-I tumors; i.p. 150 μM): no metastatic foci
- number of lung metastases (MB49-I tumors; i.p. 150 μM): significant decrease; also recorded: significantly reduce
- size of subcutaneously implanted MB49-I tumors (MB49-I tumors; i.p. 150 μM): significantly reduce
- tumor development of MB49-I cells subcutaneously implanted (MB49-I tumors; i.p. 150 μM): significant decrease; also recorded: significantly affects
- tumor volume of muscle-invasive MB49-I tumors (MB49-I tumors; i.p. 150 μM during 18 days, tumors recovered day 20): anti-proliferative activity
- size of subcutaneously implanted MB49 tumors (MB49 tumors): significant reduction; also recorded: significantly reduce

From patent US10759754B2, “Aminobenzoic acid derivatives for use as anti-inflammatory agents, anti-metastatic agents and/or anticancer agents” (3R VALO, S.E.C., priority 2016, dated 2020)
